{
  "source": "patent US20140205670A1",
  "about": "“STABLE SOLID PREPARATIONS” (TAKEDA PHARMACEUTICAL COMPANY LIMITED, priority 2002, published 2014)",
  "assay": "Stability Test of Amorphous Lansoprazole R-Isomer (compatibility with basic substances, appearance change)",
  "format": "physicochemical",
  "conditions": "blending ratio A/base 1/1 (1/0 for No Addition)",
  "procedure": "(1) 100 mg of amorphous lansoprazole R-isomer was weighed precisely under low humidity environment, and put in a transparent glass bottle. Subsequently, 100 mg of basic substance as a stabilizer of basic inorganic salt shown below was weighed precisely under low humidity environment, and placed in the bottle containing amorphous lansoprazole R-isomer. Then, the bottle was capped, and shaken slightly with hand to mix.\n[1] magnesium carbonate MgCO3 [2] calcium carbonate CaCO3 [3] magnesium oxide MgO [4] magnesium hydroxide Mg (OH)2 [5] no basic substance (2) The prepared samples were stored under the condition of 40° C./75% RH (open) for 5 days. Color tones were named and color codes were numbered based on International Color Manual so as to estimate the appearance change of samples everyday. At the end of experiment, the stability was judged by comparing the color tone with that of the sample stored at 5° C. as initial sample. In addition, A represents amorphous lansoprazole R-isomer in Table 2.",
  "data": [
    {"smiles": "Cc1c(OCC(F)(F)F)ccnc1C[S@@+]([O-])c1nc2ccccc2[nH]1", "note": "[No Addition]", "values": [
      {"measurement": "color tone, Storage conditions initial (5° C. 5 days)", "setting": "100 mg amorphous lansoprazole R-isomer (A) + 100 mg basic substance, stored at 5° C. as initial sample", "value": "pale greenish"},
      {"measurement": "appearance change after 40° C./75% RH 5 days compared with initial sample (5° C.)", "setting": "40° C./75% RH (open), 5 days", "value": "(changed)"},
      {"measurement": "color tone, Storage conditions 40° C./75% RH 5 days", "setting": "40° C./75% RH (open), 5 days", "value": "pale yellow"}
    ]}
  ]
}
